Reference: patent US20150025120A1, “PYRAZOLE-ALCOHOL COMPOUNDS AND PHARMACEUTICAL USE THEREOF” (JAPAN TOBACCO INC., priority 2013, published 2015)

Key:
human PDHK2 (hPDHK2) = biological target: T1, human PDHK2 (hPDHK2) (Homo sapiens, UniProt Q15119); assay: Inhibitory action of PDHK2 activity in vitro (residual PDH activity after kinase reaction); assay type: biochemical
T1 construct: made in house; host or cells: Escherichia coli BL21(DE3), pET17b
Method: The inhibitory action of PDHK activity was assessed indirectly by measuring the residual PDH activity after kinase reaction in the presence of a test compound.
In the case of human PDHK2 (hPDHK2, Genbank Accession No. BC040478.1), modified hPDHK2 cDNA wherein FLAG-Tag sequence was added to the N terminus of hPDHK2 cDNA clone (pReceiver-M01/PDK2-GeneCopoeia) was prepared by PCR and cloned into a vector (pET17b-Novagen). The recombinant construct was transformed into Escherichia coli (DH5α-TOYOBO). The recombinant clones were identified, and plasmid DNA was isolated and subjected to the DNA sequence analysis. One clone which had the expected nucleic acid sequence was selected for expression work.
For expression of hPDHK2 activity, Escherichia coli strain BL21(DE3) cells (Novagen) were transformed with the pET17b vector containing modified hPDHK2 cDNA. The Escherichia coli were grown to an optical density 0.6 ([…]) at 30° C. Protein expression was induced by the addition of 500 μmol/L isopropyl-β-thiogalactopyranoside. The Escherichia coli were cultured at 30° C. for 5 hr and harvested by centrifugation. Resuspension of the Escherichia coli paste was disrupted by a microfluidizer. FLAG-Tagged protein was purified using FLAG affinity gel. The gel was washed with 20 mmol/L HEPES-NaOH, 500 mmol/L sodium chloride, 1% ethylene glycol, and 0.1% Pluronic F-68 (pH 8.0), and the binding protein was eluted with 20 mmol/L HEPES-NaOH, 100 μg/mL FLAG peptide, 500 mmol/L sodium chloride, 1% ethylene glycol, and 0.1% Pluronic F-68 (pH 8.0). The eluted fractions containing FLAG-Tagged protein were pooled, dialyzed against 20 mmol/L HEPES-NaOH, 150 mmol/L sodium chloride, 0.5 mmol/L EDTA, 1% ethylene glycol, and 0.1% Pluronic F-68 (pH 8.0), and preserved at −80° C.
0.05 U/mL PDH and 0.8 μg/mL hPDHK2 were mixed in a buffer (50 mmol/L 3-morpholinopropanesulfonic acid (pH 7.0), 20 mmol/L dipotassium hydrogen phosphate, 60 mmol/L potassium chloride, 2 mmol/L magnesium chloride, 0.4 mmol/L EDTA, and 0.2% Pluronic F-68, 2 mmol/L dithiothreitol), and the mixture was incubated at 4° C. overnight to obtain a PDH/hPDHK2 complex. The test compounds were diluted with DMSO. […] DMSO (1.5 μL) was added to control wells instead of the test compound. […] The mixture was incubated at room temperature for 90 min, and the residual PDH activity was measured. The absorbance at 340 nm before and after PDH reaction was measured using a microplate reader to detect NADH produced by the PDH reaction. The hPDHK2 inhibition rate (%) of the test compound was calculated from the formula [{(PDH activity of test compound−PDH activity of control)/PDH activity of blank−PDH activity of control)}×100].

[1] = Metabolic stability test in liver microsome (human); assay type: in vitro ADME; settings: 5 μM test compound
Method: Human liver microsome (manufactured by Xenotech, H0620, final concentration (after dilution), 0.2 mg protein/mL) was suspended in 100 mM potassium phosphate buffer (pH 7.4, containing β-nicotinamide adenine dinucleotide phosphate: 1.3 mM, D-glucose-6-phosphate: 3.3 mM, magnesium chloride: 3.3 mM, glucose-6-phosphate dehydrogenase: 0.45 U/mL), and further mixed with a test compound dissolved in MeCN/DMSO (95/5) (final concentration 5 μM). The mixture was incubated at 37° C. for 10 min and 60 min, acetonitrile containing formic acid (final concentration 0.1%) was added, and the mixture was centrifuged. The test compound (unmodified) in the supernatant was measured by high performance liquid chromatography/mass spectrometry (LC/MS) (manufactured by Waters, LC: Acquity UPLC, MS:SQ Detector or TQ Detector). The residual ratio (%) was calculated from the obtained measurement value.

tissue PDH activity = assay: Ex vivo PDH activation assay (liver and epididymal adipose tissue after oral administration); assay type: in vivo, Sprague-Dawley rats; settings: 3 mg/kg, rat, mean ± standard deviation
Method: The action of test compound on tissue PDH activity was evaluated. NADH production was detected via p-iodonitrotetrazolium violet (INT)-coupled system to measure PDH activity.
Normal male Sprague-Dawley rats were randomly allocated to the vehicle group and the test compound groups. The vehicle (0.5% aqueous methylcellulose solution, 5 mL/kg) or the test compound was orally administered to the rats. At 5 or 20 hr after administration, the rats were anesthetized with an intraperitoneal injection of sodium pentobarbital (60 mg/kg), and liver slices and epididymal adipose tissues were collected.
(§1) To the liver slices were rapidly added 9 volumes of ice-cold homogenization buffer (0.25 mol/L sucrose, 5 mmol/L tris(hydroxymethyl)aminomethane hydrochloride (pH 7.5), 2 mmol/L EDTA), and the mixtures were homogenized using a Polytron homogenizer. The homogenates were centrifuged at 600×g, 4° C. for 10 min to obtain the supernatant. The supernatants (1 mL) were centrifuged at 16,000×g, 4° C. for 10 min to collect the precipitates. The precipitates were washed by resuspension in the homogenization buffer (1 mL) and centrifuged in the same manner. The precipitates were frozen with liquid nitrogen and stored at −80° C. as the liver mitochondrial fraction.
as §1, with “adipose tissues” for “liver slices”, “3” for “9”, “of an” for “of”, “buffer,” for “buffer (0.25 mol/L sucrose, 5 mmol/L tris(hydroxymethyl)aminomethane hydrochloride (pH 7.5), 2 mmol/L EDTA),”, “supernatants” for “supernatants (1 mL)”, “adipose tissue” for “liver”
The mitochondrial fractions were thawed and suspended with the sample buffer (0.25 mol/L sucrose, 20 mmol/L tris(hydroxymethyl)aminomethane hydrochloride (pH 7.5), 50 mmol/L potassium chloride, and 1 mL/L 4-(1,1,3,3-tetramethylbutyl)phenyl-polyethylene glycol (Triton X-100)). Active PDH activity (PDHa activity) and total PDH activity (PDHt activity) were measured to evaluate the PDH activity. For the measurement of the PDHt activity, equal amounts of the mitochondrial suspension and the activation buffer (0.25 mol/L sucrose, 20 mmol/L tris(hydroxymethyl)aminomethane hydrochloride (pH 7.5), 50 mmol/L potassium chloride, 1 mL/L Triton X-100, 4 mmol/L calcium chloride, 40 mmol/L magnesium chloride, 10 mmol/L sodium dichloroacetate) were mixed, and the mixtures were incubated at 37° C. for 10 min. Forty microliters of the mitochondrial suspensions diluted with a sample buffer were added to a 96-well microplate for activity measurement and blank measurement. Then 180 μL of the reaction mixture (0.056 mmol/L potassium phosphate buffer (pH 7.5), 5.6 mmol/L DL-carnitine, 2.8 mmol/L NAD, 0.22 mmol/L thiamin pyrophosphate, 0.11 mmol/L Coenzyme A, 1.1 mL/L Triton X-100, 1.1 mmol/L magnesium chloride, 1.1 g/L bovine serum albumin, 0.67 mmol/L INT, 7.2 μmol/L phenazine methosulfate, 28 mmol/L sodium oxamate) was added to each well, and then 20 μL of 50 mmol/L sodium pyruvate for activity measurement or water for blank measurement were added. The mixtures were incubated at room temperature under shading. The absorbances at 500-750 nm, which were attributable to reduction of INT, the final electron acceptor, were measured using a microplate reader over time and the changes in the absorbance were calculated. The PDH activity was calculated by subtraction of the change in absorbance of the blank well from that of the activity measurement well. The percentage of the PDHa activity to the PDHt activity was calculated and taken as an index of the PDH activation.

[2] = Metabolic stability test in liver microsome (rat); assay type: in vitro ADME

CC(C)(O)CCOc1cc(-c2cnn(CC(C)(C)O)c2)c2c(c1)[C@@](O)(C(F)(F)F)c1ccccc1-2 [compound (3), (9R)-2-(3-hydroxy-3-methylbutoxy)-4-[1-(2-hydroxy-2-methylpropyl)-1H-pyrazol-4-yl]-9-(trifluoromethyl)-9H-fluoren-9-ol]
IC50 (human PDHK2 (hPDHK2)): 4.6 nM | stability in liver microsome (residual ratio %) ([1]; 10 min): 96.0% | stability in liver microsome (residual ratio %) ([1]; 60 min): 85.3% | PDHa activity (% PDHt activity) (tissue PDH activity; adipose tissue, 5 hr after oral administration): 58 ± 7 % PDHt activity | PDHa activity (% PDHt activity) (tissue PDH activity; adipose tissue, 20 hr after oral administration): 40 ± 3 % PDHt activity | PDHa activity (% PDHt activity) (tissue PDH activity; liver, 5 hr after oral administration): 51 ± 13 % PDHt activity | PDHa activity (% PDHt activity) (tissue PDH activity; liver, 20 hr after oral administration): 31 ± 12 % PDHt activity | stability in liver microsome (residual ratio %) ([2]; 10 min): 98.2% | stability in liver microsome (residual ratio %) ([2]; 60 min): 99.7%
